Test results: PubChem BioAssay (NCI)
Values joined by “and” are separate entries in the source; they are usually repeats but may differ in a detail not shown here. Equal values may be shown once.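 Exposure lasted 48 hours, with cells grown in 96-well plates and compounds tested at five concentrations. At the GI50, growth is halved. TGI denotes the concentration required for complete inhibition of growth.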

Columns and labels:
Test in all cases: NCI tumour cell line growth inhibition, 48 h
[1] = tested on: NCI-H226 lung
[2] = tested on: SK-MEL-2 melanoma
[3] = tested on: NCI/ADR-RES ovarian
[4] = tested on: U251 CNS
[5] = tested on: MDA-MB-435
[6] = tested on: SW-620 colon
[7] = tested on: NCI-H460 lung
[8] = tested on: SNB-19 CNS
[9] = tested on: HOP-92 NSCLC
[10] = tested on: UACC-257 melanoma

Compound	TGI [1]	TGI [2]	TGI [3]	TGI [4]	TGI [5]	TGI [6]	TGI [7]	TGI [8]	TGI [9]	TGI [10]	GI50 [2]	GI50 [3]	GI50 [4]	GI50 [5]	GI50 [6]	GI50 [7]	GI50 [8]	GI50 [1] [µM]	GI50 [9] [µM]	GI50 [10]
COc1ccc(NC(=O)Oc2ccc3c(C)cc(=O)oc3c2)c(OC)c1 (tested in a mixture with another compound)	> 100 µM	> 100 µM	> 100 µM	> 100 µM	> 100 µM	> 100 µM	> 100 µM	> 100 µM	–	–	–	–	–	–	–	–	–	–	–	–
COc1ccc(C(=O)C2CCC(C(=O)O)C2)cc1 (stereo not given)	> 100 µM	> 100 µM	–	> 100 µM	–	> 100 µM	> 100 µM	> 100 µM	> 100 µM	> 100 µM	–	–	–	–	–	–	–	–	–	–
CCOC(=O)C12CCCC1(O)N(NC(=O)OC)C(C)=C2C(=O)OC (stereo not given)	> 100 µM	47.3 µM	–	> 100 µM	–	> 100 µM	> 100 µM	> 100 µM	> 100 µM	> 100 µM	–	–	–	–	–	–	–	–	–	–
C[C@@H]1C[C@H](N)C[C@H](c2ccncc2NC(=O)c2ccc(F)c(-c3c(F)cccc3F)n2)C1	–	34.8 µM and > 10 µM	30.6 µM and > 10 µM	24.7 µM and > 10 µM	22.1 µM and > 10 µM	25.2 µM and > 10 µM	28.7 µM and > 10 µM	30.3 µM and > 10 µM	–	–	17.1 µM and > 10 µM	14.5 µM and > 10 µM	12 µM and > 10 µM	10.4 µM and 9.19 µM	11.6 µM and 9.63 µM	13.7 µM and > 10 µM	15.6 µM and > 10 µM	–	–	–
[N-]=[N+]=NCN1C(=O)C2C3C=CC(C2C1=O)C1C2C(=O)N(CN=[N+]=[N-])C(=O)C2C31 (stereo not given)	–	> 100 µM	> 100 µM	–	> 100 µM	> 100 µM	> 100 µM	> 100 µM	> 100 µM	> 100 µM	–	–	–	–	–	–	–	–	–	–
COC(=O)CCC(=O)Nc1ccc(Cl)cc1C	> 100 µM	> 100 µM	–	> 100 µM	–	> 100 µM	> 100 µM	> 100 µM	> 100 µM	> 100 µM	–	–	–	–	–	–	–	–	–	–
O=C1c2ccccc2C(=O)N1CCc1ncc(-c2ccccc2)[nH]1	> 100 µM	> 100 µM	> 100 µM	> 100 µM	–	> 100 µM	> 100 µM	> 100 µM	–	> 100 µM	–	–	–	–	–	–	–	–	–	–
NCCCCC(NC(=O)C(N)CCCN=C(N)N)C(=O)NC(CCCCN)C(=O)NC(CCCN=C(N)N)C(=O)NC(CCCN=C(N)N)C(=O)NC(CCC(N)=O)C(=O)NC(CCCN=C(N)N)C(=O)NC(CCCN=C(N)N)C(=O)NC(CCCN=C(N)N)C(=O)NCC(=O)NCC(=O)O (stereo not given)	> 50 µM	> 50 µM	> 50 µM	> 50 µM	> 50 µM	> 50 µM	> 50 µM	> 50 µM	> 50 µM	–	> 50 µM	> 50 µM	> 50 µM	> 50 µM	> 50 µM	> 50 µM	> 50 µM	> 50	> 50	–
C=C(C)[C@@H]1CC[C@]2(CO)CC[C@]3(C)[C@H](CC[C@@H]4[C@@]5(C)CCCNC(C)(C)[C@@H]5CC[C@]43C)[C@@H]12	4.09 µM	–	3.18 µM	3.09 µM	–	3.41 µM	3.21 µM	3.2 µM	3.33 µM	3.73 µM	–	1.63 µM	1.65 µM	–	1.81 µM	1.63 µM	1.75 µM	1.98	1.73	1.95 µM
CN(C)c1ccc(/C=c2\sc3nnc(-c4ccco4)n3c2=O)cc1	> 100 µM	> 100 µM	–	> 100 µM	–	> 100 µM	> 100 µM	> 100 µM	> 100 µM	> 100 µM	–	–	–	–	–	–	–	–	–	–
CCOC(=O)c1ccc(-n2cnc(-c3ccc([N+](=O)[O-])cc3)c2)cc1	> 100 µM	> 100 µM	> 100 µM	> 100 µM	> 100 µM	> 100 µM	> 100 µM	> 100 µM	–	> 100 µM	–	–	–	–	–	–	–	–	–	–
COc1ccc(/C=C/c2cc(OC)c(OC(C)=O)c(OC)c2)cc1	96.6 µM	> 100 µM	–	38.4 µM	–	–	60.4 µM	> 100 µM	65.1 µM	66.9 µM	–	–	–	–	–	–	–	–	–	–
c1ccc(SC(Sc2ccccc2)=C2CCC2)cc1	–	> 100 µM	–	> 100 µM	–	> 100 µM	> 100 µM	> 100 µM	> 100 µM	> 100 µM	–	–	–	–	–	–	–	–	–	–
O=C1c2ccccc2-c2c3c(cc4ccnc1c24)OCO3	26.2 µM and 24.4 µM	19.3 µM and 28.5 µM	–	35.1 µM and > 100 µM	–	23.4 µM and > 100 µM	19.6 µM and 16.4 µM	> 100 µM and 77.4 µM	39.9 µM and 37.1 µM	39.2 µM and 11.7 µM	–	–	–	–	–	–	–	–	–	5.23 µM and 2.59 µM
CC(Oc1ccc2c(-c3ccc(Cl)cc3)cc(=O)oc2c1)C(=O)O (stereo not given)	> 100 µM	–	–	> 100 µM	–	> 100 µM	> 100 µM	> 100 µM	> 100 µM	> 100 µM	–	–	–	–	–	–	–	–	–	–
CSC(=NC(=O)c1ccccc1Cl)SCCSC(=NC(=O)c1ccccc1Cl)SC	> 100 µM	> 100 µM	–	> 100 µM	–	> 100 µM	> 100 µM	> 100 µM	> 100 µM	> 100 µM	–	–	–	–	–	–	–	–	–	–
CCN(CC)CCN(CC)CC.CCN(CC)CCN(CC)CC.[Cu+2].[Cu+2].[O-][Cl+3]([O-])([O-])[O-].[OH3+].[OH3+]	–	–	–	32.1 µM	–	> 100 µM	37.6 µM	36.6 µM	> 100 µM	> 100 µM	–	–	17.2 µM	–	> 100 µM	15.5 µM	22 µM	–	> 100	> 100 µM
Cc1ccc(NCC2(/N=C/c3ccccc3)OC(CO)C(O)C2O)cc1 (stereo not given)	> 100 µM	> 100 µM	–	83.7 µM	–	> 100 µM	> 100 µM	> 100 µM	> 100 µM	> 100 µM	–	–	–	–	–	–	–	–	–	–
COc1ccc(-c2ncnc3c2ncn3CC#CCCl)cc1	26.2 µM	–	8.15 µM	4.85 µM	11.5 µM	12.4 µM	12.4 µM	18.1 µM	11.8 µM	21.8 µM	–	2.72 µM	1.96 µM	2.71 µM	2.99 µM	3.27 µM	4.87 µM	4.45	2.75	5.74 µM
CCC[CH2][Sn](=[O])[CH2]CCC	> 50 µM	> 50 µM	–	> 50 µM	–	> 50 µM	> 50 µM	> 50 µM	> 50 µM	> 50 µM	> 50 µM	–	> 50 µM	–	> 50 µM	> 50 µM	> 50 µM	> 50	31.9	> 50 µM
